Laboratory results taken from the kinase profiling compilation of Christmann-Franck et al. (2016).

What was measured:
Test in all cases: KINOMEscan competition binding
Conditions in all cases: compound 10.0 µM
[1] = test system: EGFR (human), P00533 [G719C; 746-750 del]
FRK (human) = FRK (human) (UniProt P42685)
STK10 (human) = STK10 (human) (UniProt O94804)
SIK1 (human) = SIK1 (human) (UniProt P57059)
[2] = test system: EGFR (human), P00533 [P753S; 747-752 del]
[3] = test system: ABL1 (human), P00519 [F317L]
PLK3 (human) = PLK3 (human) (UniProt Q9H4B4)
SLK (human) = SLK (human) (UniProt Q9H2G2)
RPS6KA6 KD2 (human) = RPS6KA6 KD2 (human) (UniProt Q9UK32)
DAPK3 (human) = DAPK3 (human) (UniProt O43293)
[4] = test system: EGFR (human), P00533 [A750P; 747-749 del]
TNK2 (human) = TNK2 (human) (UniProt Q07912)
PLK1 (human) = PLK1 (human) (UniProt P53350)
GAK (human) = GAK (human) (UniProt O14976)
PTK2 (human) = PTK2 (human) (UniProt Q05397)
[5] = test system: EGFR (human), P00533 [747-751 del / S ins]
TTK (human) = TTK (human) (UniProt P33981)
PTK2B (human) = PTK2B (human) (UniProt Q14289)
PDGFRB (human) = PDGFRB (human) (UniProt P09619)
[6] = test system: KIT (human), P10721 [V559D]
DDR1 (human) = DDR1 (human) (UniProt Q08345)
KIT (human) = KIT (human) (UniProt P10721)
TIE1 (human) = TIE1 (human) (UniProt P35590)
[7] = test system: ABL1 (human), P00519 [F317I]
ALK (human) = ALK (human) (UniProt Q9UM73)
FLT3 (human) = FLT3 (human) (UniProt P36888)
CAMK2D (human) = CAMK2D (human) (UniProt Q13557)
[8] = test system: FLT3 (human), P36888 [K663Q]
CLK4 (human) = CLK4 (human) (UniProt Q9HAZ1)
DCLK1 (human) = DCLK1 (human) (UniProt O15075)
[9] = test system: FLT3 (human), P36888 [D835H]
CAMK2B (human) = CAMK2B (human) (UniProt Q13554)
MAPK7 (human) = MAPK7 (human) (UniProt Q13164)
MYLK4 (human) = MYLK4 (human) (UniProt Q86YV6)
PTK6 (human) = PTK6 (human) (UniProt Q13882)
CLK1 (human) = CLK1 (human) (UniProt P49759)
MKNK2 (human) = MKNK2 (human) (UniProt Q9HBH9)
DCLK3 (human) = DCLK3 (human) (UniProt Q9C098)
[10] = test system: FLT3 (human), P36888 [D835Y]
PHKG1 (human) = PHKG1 (human) (UniProt Q16816)
ULK2 (human) = ULK2 (human) (UniProt Q8IYT8)
DCLK2 (human) = DCLK2 (human) (UniProt Q8N568)
TNK1 (human) = TNK1 (human) (UniProt Q13470)
DYRK1B (human) = DYRK1B (human) (UniProt Q9Y463)
[11] = test system: FLT3 (human), P36888 [N841I]
CAMK2A (human) = CAMK2A (human) (UniProt Q9UQM7)
[12] = test system: FLT3 (human), P36888 [ITD]
CAMK2G (human) = CAMK2G (human) (UniProt Q13555)

Sequence of TNK2 (human) (Q07912 whole entry, looked up): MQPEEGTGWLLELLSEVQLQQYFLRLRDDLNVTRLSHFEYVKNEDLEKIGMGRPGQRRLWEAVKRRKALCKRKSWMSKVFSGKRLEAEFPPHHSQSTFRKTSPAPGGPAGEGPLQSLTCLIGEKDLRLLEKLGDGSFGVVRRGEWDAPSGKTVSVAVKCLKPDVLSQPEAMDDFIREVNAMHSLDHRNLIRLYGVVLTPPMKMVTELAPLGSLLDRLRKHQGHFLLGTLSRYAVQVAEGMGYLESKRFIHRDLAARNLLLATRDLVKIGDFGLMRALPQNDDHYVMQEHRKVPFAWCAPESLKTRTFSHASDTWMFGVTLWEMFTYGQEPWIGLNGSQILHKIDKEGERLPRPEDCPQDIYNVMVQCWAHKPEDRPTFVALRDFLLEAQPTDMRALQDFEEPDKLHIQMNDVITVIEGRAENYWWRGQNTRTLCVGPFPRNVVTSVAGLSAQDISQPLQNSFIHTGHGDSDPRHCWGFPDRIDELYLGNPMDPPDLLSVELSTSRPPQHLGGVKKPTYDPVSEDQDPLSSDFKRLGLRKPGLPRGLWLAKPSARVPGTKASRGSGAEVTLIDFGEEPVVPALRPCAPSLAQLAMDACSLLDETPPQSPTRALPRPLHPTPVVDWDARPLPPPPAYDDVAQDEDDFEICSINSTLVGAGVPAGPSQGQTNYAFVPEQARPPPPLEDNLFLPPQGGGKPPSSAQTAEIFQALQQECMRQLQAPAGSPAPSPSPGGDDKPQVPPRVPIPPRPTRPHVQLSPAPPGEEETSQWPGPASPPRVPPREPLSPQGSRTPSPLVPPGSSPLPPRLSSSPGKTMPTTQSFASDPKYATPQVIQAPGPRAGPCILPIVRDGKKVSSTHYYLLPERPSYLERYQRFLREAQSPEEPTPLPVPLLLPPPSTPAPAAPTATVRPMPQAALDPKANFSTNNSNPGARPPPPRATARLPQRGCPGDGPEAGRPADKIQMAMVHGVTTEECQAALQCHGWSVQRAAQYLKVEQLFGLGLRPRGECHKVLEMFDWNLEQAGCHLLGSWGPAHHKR
Sequence of ABL1 (human), P00519 [F317L] (P00519 whole entry F317L, looked up): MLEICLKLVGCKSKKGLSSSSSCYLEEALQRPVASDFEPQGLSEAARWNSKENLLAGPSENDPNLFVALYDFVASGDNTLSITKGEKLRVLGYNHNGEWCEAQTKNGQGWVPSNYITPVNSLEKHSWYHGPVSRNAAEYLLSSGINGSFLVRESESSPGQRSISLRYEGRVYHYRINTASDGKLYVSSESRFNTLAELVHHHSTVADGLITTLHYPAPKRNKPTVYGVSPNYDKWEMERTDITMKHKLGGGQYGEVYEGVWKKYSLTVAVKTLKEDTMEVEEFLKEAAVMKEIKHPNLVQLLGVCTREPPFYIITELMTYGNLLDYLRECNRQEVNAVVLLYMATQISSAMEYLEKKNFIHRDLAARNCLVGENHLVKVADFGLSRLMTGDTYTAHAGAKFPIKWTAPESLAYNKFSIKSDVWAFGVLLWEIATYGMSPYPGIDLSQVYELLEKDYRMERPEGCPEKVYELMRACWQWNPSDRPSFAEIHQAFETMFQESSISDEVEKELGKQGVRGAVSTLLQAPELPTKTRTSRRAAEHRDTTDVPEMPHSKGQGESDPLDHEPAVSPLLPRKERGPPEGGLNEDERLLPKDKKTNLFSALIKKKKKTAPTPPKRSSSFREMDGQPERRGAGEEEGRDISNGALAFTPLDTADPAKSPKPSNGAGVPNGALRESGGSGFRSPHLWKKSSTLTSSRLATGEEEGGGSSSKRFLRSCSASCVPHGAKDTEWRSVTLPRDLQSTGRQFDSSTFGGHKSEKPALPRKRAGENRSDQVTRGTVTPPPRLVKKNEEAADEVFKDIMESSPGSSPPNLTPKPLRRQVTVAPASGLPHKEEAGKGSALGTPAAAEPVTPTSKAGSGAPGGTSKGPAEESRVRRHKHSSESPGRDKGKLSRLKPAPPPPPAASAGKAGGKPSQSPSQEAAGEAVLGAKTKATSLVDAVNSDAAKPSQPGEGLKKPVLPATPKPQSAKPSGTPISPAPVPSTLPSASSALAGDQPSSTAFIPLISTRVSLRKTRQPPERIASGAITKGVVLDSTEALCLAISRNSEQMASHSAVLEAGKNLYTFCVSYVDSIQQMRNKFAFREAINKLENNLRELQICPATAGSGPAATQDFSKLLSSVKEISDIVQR
Sequence of FRK (human) (P42685 whole entry, looked up): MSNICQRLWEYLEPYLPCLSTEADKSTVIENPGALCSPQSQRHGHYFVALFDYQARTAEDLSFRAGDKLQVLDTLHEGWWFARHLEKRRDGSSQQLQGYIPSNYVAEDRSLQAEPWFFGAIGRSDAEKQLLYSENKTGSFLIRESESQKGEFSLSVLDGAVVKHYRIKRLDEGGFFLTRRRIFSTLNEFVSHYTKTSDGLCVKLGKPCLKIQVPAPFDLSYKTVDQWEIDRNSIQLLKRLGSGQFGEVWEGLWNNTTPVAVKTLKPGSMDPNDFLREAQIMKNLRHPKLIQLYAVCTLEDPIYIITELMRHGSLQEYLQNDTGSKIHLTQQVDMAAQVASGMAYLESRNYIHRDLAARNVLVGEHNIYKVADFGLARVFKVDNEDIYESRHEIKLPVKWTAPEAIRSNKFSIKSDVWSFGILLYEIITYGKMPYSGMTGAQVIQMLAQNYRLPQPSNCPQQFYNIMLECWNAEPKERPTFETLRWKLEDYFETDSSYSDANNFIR
Sequence of GAK (human) (O14976 whole entry, looked up): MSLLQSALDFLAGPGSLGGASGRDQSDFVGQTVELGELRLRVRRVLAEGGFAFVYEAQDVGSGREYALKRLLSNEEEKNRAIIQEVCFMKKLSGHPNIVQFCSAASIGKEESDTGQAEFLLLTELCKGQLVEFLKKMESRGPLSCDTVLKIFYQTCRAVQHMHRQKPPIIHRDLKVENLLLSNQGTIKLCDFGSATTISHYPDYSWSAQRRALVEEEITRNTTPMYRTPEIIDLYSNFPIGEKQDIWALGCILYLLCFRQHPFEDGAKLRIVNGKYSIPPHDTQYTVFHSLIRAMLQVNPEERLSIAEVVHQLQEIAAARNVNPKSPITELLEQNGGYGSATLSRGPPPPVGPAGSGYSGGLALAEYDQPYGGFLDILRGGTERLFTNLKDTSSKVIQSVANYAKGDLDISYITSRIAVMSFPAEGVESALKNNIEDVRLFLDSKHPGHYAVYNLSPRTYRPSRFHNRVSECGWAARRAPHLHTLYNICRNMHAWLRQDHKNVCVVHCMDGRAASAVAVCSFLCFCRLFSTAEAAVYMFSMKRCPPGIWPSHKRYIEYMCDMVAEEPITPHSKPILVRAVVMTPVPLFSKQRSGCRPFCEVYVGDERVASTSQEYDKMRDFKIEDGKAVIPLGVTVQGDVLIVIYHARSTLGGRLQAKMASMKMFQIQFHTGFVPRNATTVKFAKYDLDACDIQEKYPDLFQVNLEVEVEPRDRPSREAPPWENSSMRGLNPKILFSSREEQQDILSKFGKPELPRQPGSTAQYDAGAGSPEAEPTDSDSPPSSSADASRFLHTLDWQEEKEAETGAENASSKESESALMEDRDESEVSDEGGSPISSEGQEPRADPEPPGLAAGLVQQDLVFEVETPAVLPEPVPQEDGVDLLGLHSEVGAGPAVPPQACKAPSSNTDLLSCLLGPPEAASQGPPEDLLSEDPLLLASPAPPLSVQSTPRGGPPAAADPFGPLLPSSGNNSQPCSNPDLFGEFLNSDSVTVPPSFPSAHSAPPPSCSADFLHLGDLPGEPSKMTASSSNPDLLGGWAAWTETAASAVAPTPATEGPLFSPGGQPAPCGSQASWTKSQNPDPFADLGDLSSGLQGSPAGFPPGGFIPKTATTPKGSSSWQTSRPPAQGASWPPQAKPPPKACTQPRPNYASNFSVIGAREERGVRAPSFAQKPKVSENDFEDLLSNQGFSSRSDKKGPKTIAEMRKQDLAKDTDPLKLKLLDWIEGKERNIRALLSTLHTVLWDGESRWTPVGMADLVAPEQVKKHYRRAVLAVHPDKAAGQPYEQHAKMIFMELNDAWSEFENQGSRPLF
Sequence of STK10 (human) (O94804 whole entry, looked up): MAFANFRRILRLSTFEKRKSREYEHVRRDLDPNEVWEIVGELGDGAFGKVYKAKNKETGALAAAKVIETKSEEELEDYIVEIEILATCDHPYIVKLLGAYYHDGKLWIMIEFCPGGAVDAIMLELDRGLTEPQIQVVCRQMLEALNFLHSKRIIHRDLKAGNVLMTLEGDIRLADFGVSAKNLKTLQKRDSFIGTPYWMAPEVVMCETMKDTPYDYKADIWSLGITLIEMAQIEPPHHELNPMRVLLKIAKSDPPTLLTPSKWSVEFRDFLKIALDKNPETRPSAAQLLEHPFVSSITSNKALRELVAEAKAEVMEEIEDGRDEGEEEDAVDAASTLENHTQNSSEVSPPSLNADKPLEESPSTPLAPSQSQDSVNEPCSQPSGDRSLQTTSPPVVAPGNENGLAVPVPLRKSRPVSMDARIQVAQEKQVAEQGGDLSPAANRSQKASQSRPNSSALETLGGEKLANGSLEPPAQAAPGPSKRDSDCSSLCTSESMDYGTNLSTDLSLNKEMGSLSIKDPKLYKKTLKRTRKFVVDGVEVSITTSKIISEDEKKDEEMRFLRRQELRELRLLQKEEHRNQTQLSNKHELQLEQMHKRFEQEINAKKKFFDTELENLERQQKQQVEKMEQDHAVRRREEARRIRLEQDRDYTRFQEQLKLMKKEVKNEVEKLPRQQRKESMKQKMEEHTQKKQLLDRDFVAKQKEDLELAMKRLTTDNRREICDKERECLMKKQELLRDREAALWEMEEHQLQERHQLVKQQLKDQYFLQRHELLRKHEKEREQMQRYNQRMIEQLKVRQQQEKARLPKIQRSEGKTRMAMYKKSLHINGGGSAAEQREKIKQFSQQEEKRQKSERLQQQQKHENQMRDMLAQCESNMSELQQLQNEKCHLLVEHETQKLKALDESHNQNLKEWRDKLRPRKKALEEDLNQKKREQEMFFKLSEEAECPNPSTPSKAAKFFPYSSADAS
Sequence of ABL1 (human), P00519 [F317I] (P00519 whole entry F317I, looked up): as the sequence (P00519 whole entry F317L, looked up) above, with L317I counted along it

COc1cc(N2CCC(N3CCN(C)CC3)CC2)ccc1Nc1ncc2c(n1)N(C1CCCC1)C(C)CC(=O)N2 (centres undefined)
kinase still bound, per cent of control [1]: 30%
kinase still bound, per cent of control (FRK (human)): 16%
kinase still bound, per cent of control (STK10 (human)): 19%
kinase still bound, per cent of control (SIK1 (human)): 27%
kinase still bound, per cent of control [2]: 32%
kinase still bound, per cent of control [3]: 29%
kinase still bound, per cent of control (PLK3 (human)): 26%
kinase still bound, per cent of control (SLK (human)): 7.2%
kinase still bound, per cent of control (RPS6KA6 KD2 (human)): 12%
kinase still bound, per cent of control (DAPK3 (human)): 28%
kinase still bound, per cent of control [4]: 33%
kinase still bound, per cent of control (TNK2 (human)): 11%
kinase still bound, per cent of control (PLK1 (human)): 0%
kinase still bound, per cent of control (GAK (human)): 1.2%
kinase still bound, per cent of control (PTK2 (human)): 7.1%
kinase still bound, per cent of control [5]: 32%
kinase still bound, per cent of control (TTK (human)): 12%
kinase still bound, per cent of control (PTK2B (human)): 23%

NS(=O)(=O)c1ccc(-c2ccc(/C=C3/C(=O)NN(c4ccccc4)C3=O)o2)cc1
kinase still bound, per cent of control (STK10 (human)): 27%
kinase still bound, per cent of control (PDGFRB (human)): 33%
kinase still bound, per cent of control [6]: 29%
kinase still bound, per cent of control (DDR1 (human)): 34%
kinase still bound, per cent of control (KIT (human)): 25%
kinase still bound, per cent of control (TIE1 (human)): 25%

COc1cc(N2CCN(C)CC2)ccc1Nc1ncc2c(n1)N(C(C)C)c1ccccc1C(=O)N2
kinase still bound, per cent of control [7]: 15%
kinase still bound, per cent of control (ALK (human)): 30%
kinase still bound, per cent of control (FRK (human)): 26%
kinase still bound, per cent of control (FLT3 (human)): 13%
kinase still bound, per cent of control (CAMK2D (human)): 7.7%
kinase still bound, per cent of control [8]: 13%
kinase still bound, per cent of control (CLK4 (human)): 20%
kinase still bound, per cent of control (DCLK1 (human)): 5.4%
kinase still bound, per cent of control [9]: 18%
kinase still bound, per cent of control (CAMK2B (human)): 21%
kinase still bound, per cent of control (MAPK7 (human)): 30%
kinase still bound, per cent of control [3]: 25%
kinase still bound, per cent of control (MYLK4 (human)): 5.8%
kinase still bound, per cent of control (PTK6 (human)): 13%
kinase still bound, per cent of control (TNK2 (human)): 8.4%
kinase still bound, per cent of control (CLK1 (human)): 27%
kinase still bound, per cent of control (MKNK2 (human)): 0.8%
kinase still bound, per cent of control (GAK (human)): 2%
kinase still bound, per cent of control (DCLK3 (human)): 11%
kinase still bound, per cent of control [10]: 2%
kinase still bound, per cent of control (PHKG1 (human)): 9.2%
kinase still bound, per cent of control (ULK2 (human)): 27%
kinase still bound, per cent of control (DCLK2 (human)): 17%
kinase still bound, per cent of control (TNK1 (human)): 10%
kinase still bound, per cent of control (DYRK1B (human)): 12%
kinase still bound, per cent of control [11]: 0.35%
kinase still bound, per cent of control (CAMK2A (human)): 5.4%
kinase still bound, per cent of control [12]: 6.5%
kinase still bound, per cent of control (TTK (human)): 1%
kinase still bound, per cent of control (CAMK2G (human)): 25%
